Species on record: Rattus norvegicus
Test: DrugMatrix - Regimen: Daily Repeat
Type: toxicity, organism-based, Sprague-Dawley
Set-up: regimen Daily Repeat, gender Male, age 6-8 weeks
Details: in vivo, po, route oral GAVAGE, vehicle .5 % CMC; for ABSOLUTE BASOPHIL / ABSOLUTE EOSINOPHIL / ABSOLUTE LYMPHOCYTE / ABSOLUTE MONOCYTE / ABSOLUTE SEGMENTED NEUTROPHIL / BASOPHIL / EOSINOPHIL / ERYTHROCYTE COUNT / HEMATOCRIT / HEMOGLOBIN / LEUKOCYTE COUNT / LYMPHOCYTE / MEAN CORPUSCULAR HEMOGLOBIN / MEAN CORPUSCULAR HEMOGLOBIN CONCENTRATION / MEAN CORPUSCULAR VOLUME / MONOCYTE / NEUTROPHIL / NUCLEATED RED BLOOD CELLS / PLATELET COUNT: tissue Blood; for ALANINE AMINOTRANSFERASE / ALBUMIN / ALKALINE PHOSPHATASE / ASPARTATE AMINOTRANSFERASE / BLOOD UREA NITROGEN / CARBON DIOXIDE / CHLORIDE / CHOLESTEROL / CREATINE PHOSPHOKINASE / CREATININE / GLUCOSE / LACTATE DEHYDROGENASE / LIPASE / PHOSPHORUS / POTASSIUM / SODIUM / TOTAL BILIRUBIN / TOTAL PROTEIN / URIC ACID: tissue Plasma
[1] = 200 mg/kg, 72 h, dose level Low, time 3 day
[2] = 200 mg/kg, 120 h, dose level Low, time 5 day
[3] = 1000 mg/kg, 72 h, dose level High, time 3 day
[4] = 1000 mg/kg, 120 h, dose level High, time 5 day

## c1ccc(Nc2ccc(Nc3ccccc3)cc2)cc1
[1]
  ABSOLUTE BASOPHIL: 0 CELLS/uL
  ABSOLUTE EOSINOPHIL: 237 CELLS/uL
  ABSOLUTE LYMPHOCYTE: 13213.33 CELLS/uL
  ABSOLUTE MONOCYTE: 291.33 CELLS/uL
  ABSOLUTE SEGMENTED NEUTROPHIL: 1225 CELLS/uL
  BASOPHIL: 0%
  EOSINOPHIL: 1.67%
  ERYTHROCYTE COUNT: 5.4 x10E6/uL
  HEMATOCRIT: 33.57%
  HEMOGLOBIN: 12.87 G/DL
  LEUKOCYTE COUNT: 14.97 x10E3/uL
  LYMPHOCYTE: 88%
  MEAN CORPUSCULAR HEMOGLOBIN: 23.83 pg
  MEAN CORPUSCULAR HEMOGLOBIN CONCENTRATION: 38.33 G/DL
  MEAN CORPUSCULAR VOLUME: 62.2 fL
  MONOCYTE: 2%
  NEUTROPHIL: 8.33%
  NUCLEATED RED BLOOD CELLS: 0 /100WBC
  PLATELET COUNT: 1471 x10E3/uL
  ALANINE AMINOTRANSFERASE: 46.67 u/L
  ALBUMIN: 4.2 G/DL
  ALKALINE PHOSPHATASE: 353.67 u/L
  ASPARTATE AMINOTRANSFERASE: 106.33 u/L
  BLOOD UREA NITROGEN: 15 mg/dL
  CARBON DIOXIDE: 22 mmol/L
  CHLORIDE: 105.33 MEQ/L
  CHOLESTEROL: 67 mg/dL
  CREATINE PHOSPHOKINASE: 1002.33 u/L
  CREATININE: 0.23 mg/dL
  GLUCOSE: 178.33 mg/dL
  LACTATE DEHYDROGENASE: 537.67 u/L
  LIPASE: 9.33 u/L
  PHOSPHORUS: 12.7 mg/dL
  POTASSIUM: 6.26 MEQ/L
  SODIUM: 143.9 MEQ/L
  TOTAL BILIRUBIN: 0.23 mg/dL
  TOTAL PROTEIN: 5.57 G/DL
  URIC ACID: 1.87 mg/dL
[2]
  ABSOLUTE BASOPHIL: 0 CELLS/uL
  ABSOLUTE EOSINOPHIL: 45 CELLS/uL
  ABSOLUTE LYMPHOCYTE: 13082 CELLS/uL
  ABSOLUTE MONOCYTE: 237 CELLS/uL
  ABSOLUTE SEGMENTED NEUTROPHIL: 736 CELLS/uL
  BASOPHIL: 0%
  EOSINOPHIL: 0.33%
  ERYTHROCYTE COUNT: 5.63 x10E6/uL
  HEMATOCRIT: 36.07%
  HEMOGLOBIN: 13.67 G/DL
  LEUKOCYTE COUNT: 14.1 x10E3/uL
  LYMPHOCYTE: 92.67%
  MEAN CORPUSCULAR HEMOGLOBIN: 24.23 pg
  MEAN CORPUSCULAR HEMOGLOBIN CONCENTRATION: 37.93 G/DL
  MEAN CORPUSCULAR VOLUME: 63.97 fL
  MONOCYTE: 1.67%
  NEUTROPHIL: 5.33%
  NUCLEATED RED BLOOD CELLS: 0.33 /100WBC
  PLATELET COUNT: 1272.33 x10E3/uL
  ALANINE AMINOTRANSFERASE: 46 u/L
  ALBUMIN: 4.23 G/DL
  ALKALINE PHOSPHATASE: 349 u/L
  ASPARTATE AMINOTRANSFERASE: 77.67 u/L
  BLOOD UREA NITROGEN: 17 mg/dL
  CARBON DIOXIDE: 28 mmol/L
  CHLORIDE: 105.67 MEQ/L
  CHOLESTEROL: 70.67 mg/dL
  CREATINE PHOSPHOKINASE: 230.33 u/L
  CREATININE: 0.24 mg/dL
  GLUCOSE: 178 mg/dL
  LACTATE DEHYDROGENASE: 121.33 u/L
  LIPASE: 8.67 u/L
  PHOSPHORUS: 12.4 mg/dL
  POTASSIUM: 6.76 MEQ/L
  SODIUM: 148.13 MEQ/L
  TOTAL BILIRUBIN: 0.23 mg/dL
  TOTAL PROTEIN: 5.83 G/DL
  URIC ACID: 2 mg/dL
[3]
  ABSOLUTE BASOPHIL: 0 CELLS/uL
  ABSOLUTE EOSINOPHIL: 52.33 CELLS/uL
  ABSOLUTE LYMPHOCYTE: 13944 CELLS/uL
  ABSOLUTE MONOCYTE: 300.33 CELLS/uL
  ABSOLUTE SEGMENTED NEUTROPHIL: 1236.67 CELLS/uL
  BASOPHIL: 0%
  EOSINOPHIL: 0.33%
  ERYTHROCYTE COUNT: 5.47 x10E6/uL
  HEMATOCRIT: 34.97%
  HEMOGLOBIN: 13.1 G/DL
  LEUKOCYTE COUNT: 15.53 x10E3/uL
  LYMPHOCYTE: 89.67%
  MEAN CORPUSCULAR HEMOGLOBIN: 23.97 pg
  MEAN CORPUSCULAR HEMOGLOBIN CONCENTRATION: 37.47 G/DL
  MEAN CORPUSCULAR VOLUME: 63.93 fL
  MONOCYTE: 2%
  NEUTROPHIL: 8%
  NUCLEATED RED BLOOD CELLS: 0 /100WBC
  PLATELET COUNT: 1345 x10E3/uL
  ALANINE AMINOTRANSFERASE: 40 u/L
  ALBUMIN: 4.3 G/DL
  ALKALINE PHOSPHATASE: 405.33 u/L
  ASPARTATE AMINOTRANSFERASE: 83 u/L
  BLOOD UREA NITROGEN: 18.33 mg/dL
  CARBON DIOXIDE: 26.33 mmol/L
  CHLORIDE: 102.33 MEQ/L
  CHOLESTEROL: 78.33 mg/dL
  CREATINE PHOSPHOKINASE: 324.33 u/L
  CREATININE: 0.21 mg/dL
  GLUCOSE: 155.67 mg/dL
  LACTATE DEHYDROGENASE: 398 u/L
  LIPASE: 8.67 u/L
  PHOSPHORUS: 12.6 mg/dL
  POTASSIUM: 7.38 MEQ/L
  SODIUM: 144.77 MEQ/L
  TOTAL BILIRUBIN: 0.33 mg/dL
  TOTAL PROTEIN: 5.8 G/DL
  URIC ACID: 1.47 mg/dL
[4]
  ABSOLUTE BASOPHIL: 0 CELLS/uL
  ABSOLUTE EOSINOPHIL: 50 CELLS/uL
  ABSOLUTE LYMPHOCYTE: 13072 CELLS/uL
  ABSOLUTE MONOCYTE: 337.33 CELLS/uL
  ABSOLUTE SEGMENTED NEUTROPHIL: 907.33 CELLS/uL
  BASOPHIL: 0%
  EOSINOPHIL: 0.33%
  ERYTHROCYTE COUNT: 5.47 x10E6/uL
  HEMATOCRIT: 35.47%
  HEMOGLOBIN: 13.47 G/DL
  LEUKOCYTE COUNT: 14.37 x10E3/uL
  LYMPHOCYTE: 91%
  MEAN CORPUSCULAR HEMOGLOBIN: 24.77 pg
  MEAN CORPUSCULAR HEMOGLOBIN CONCENTRATION: 37.97 G/DL
  MEAN CORPUSCULAR VOLUME: 65.07 fL
  MONOCYTE: 2.33%
  NEUTROPHIL: 6.33%
  NUCLEATED RED BLOOD CELLS: 0 /100WBC
  PLATELET COUNT: 1396.67 x10E3/uL
  ALANINE AMINOTRANSFERASE: 42.33 u/L
  ALBUMIN: 4.23 G/DL
  ALKALINE PHOSPHATASE: 316.67 u/L
  ASPARTATE AMINOTRANSFERASE: 67 u/L
  BLOOD UREA NITROGEN: 16.33 mg/dL
  CARBON DIOXIDE: 29 mmol/L
  CHLORIDE: 105.67 MEQ/L
  CHOLESTEROL: 69.33 mg/dL
  CREATINE PHOSPHOKINASE: 202.33 u/L
  CREATININE: 0.25 mg/dL
  GLUCOSE: 159 mg/dL
  LACTATE DEHYDROGENASE: 84.33 u/L
  LIPASE: 9 u/L
  PHOSPHORUS: 12.27 mg/dL
  POTASSIUM: 6.19 MEQ/L
  SODIUM: 146.97 MEQ/L
  TOTAL BILIRUBIN: 0.33 mg/dL
  TOTAL PROTEIN: 5.83 G/DL
  URIC ACID: 1.73 mg/dL
